Assay results published in ChEMBL document CHEMBL5352474, “Synthesis and in vitro antileishmanial activity of alkylene-linked nitrofurantoin-triazole hybrids” (Eur J Med Chem, 2023).

Columns and labels:
[1] = system: Leishmania major; test: Antileishmanial activity against Leishmania major IR-173 promastigotes assessed as inhibition of parasite growth incubated for 48 hrs by resazurin dye based assay; assay type: functional, organism-based; conditions: IR-173, 48 h
[2] = Selectivity index, ratio of IC50 for cytotoxicity against HEK293 cells to IC50 for antileishmanial activity against Leishmania major IR-173 promastigotes; assay type: toxicity, cell-based; conditions: human, read-out: Ratio IC50
[3] = system: Leishmania major; test: Antileishmanial activity against Leishmania major IR-173 amastigote infected in human THP-1 cells assessed as static activity by measuring inhibition of parasite growth incubated for 72 hrs by resazurin dye based assay; assay type: functional, organism-based; conditions: IR-173, THP-1, 72 h
[4] = system: Leishmania donovani; test: Antileishmanial activity against Leishmania donovani 9515 amastigote infected in human THP-1 cells assessed as static activity by measuring inhibition of parasite growth incubated for 72 hrs by resazurin dye based assay; assay type: functional, organism-based; conditions: Leishmania donovani, 9515, THP-1, 72 h
[5] = Cytotoxicity against HEK293 cells assessed as inhibition of cell growth incubated for 48 hrs by resazurin dye based assay; assay type: toxicity; conditions: human
[6] = system: Leishmania major; test: Leishmanicidal activity against Leishmania major IR-173 amastigote infected in human THP-1 cells incubated for 72 hrs by resazurin dye based analysis; assay type: functional, organism-based; conditions: IR-173, THP-1, 72 h
[7] = system: Leishmania donovani; test: Antileishmanial activity against Leishmania donovani 9515 promastigotes assessed as inhibition of parasite growth incubated for 48 hrs by resazurin dye based assay; assay type: functional, organism-based; conditions: Leishmania donovani, 9515, 48 h
[8] = system: Leishmania donovani; test: Leishmanicidal activity against Leishmania donovani 9515 amastigote infected in human THP-1 cells incubated for 72 hrs by resazurin dye based analysis; assay type: functional, organism-based; conditions: Leishmania donovani, 9515, THP-1, 72 h
[9] = Selectivity index, ratio of IC50 for cytotoxicity against HEK293 cells to IC50 for antileishmanial activity against Leishmania donovani 9515 promastigotes; assay type: toxicity, cell-based; conditions: human, read-out: Ratio IC50

Structure (SMILES)	IC50 [1] [µM]	selectivity ratio [2]	IC50 [3] [µM]	IC50 [4] [µM]	IC50 at 48 h [5] [µM]	IC50 [6] [µM]	IC50 [7] [µM]	IC50 [8] [µM]	selectivity ratio [9]
O=C1CN(/N=C/c2ccc([N+](=O)[O-])o2)C(=O)N1CCCCCCn1cc(-c2ccc(F)cc2)nn1	0.22	40	> 10	> 10	8.97	> 10	> 10	> 10	–
CCCCCc1ccc(-c2cn(CCCCCCN3C(=O)CN(/N=C/c4ccc([N+](=O)[O-])o4)C3=O)nn2)cc1	2.19	–	> 10	> 10	–	> 10	0.05	> 10	–
COc1ccc(-c2cn(CCCCCN3C(=O)CN(/N=C/c4ccc([N+](=O)[O-])o4)C3=O)nn2)cc1	0.5	45	> 10	> 10	22.7	> 10	> 10	> 10	–
O=C1CN(/N=C/c2ccc([N+](=O)[O-])o2)C(=O)N1CCCCCCn1cc(CSc2ccccc2)nn1	2.75	7	> 10	> 10	19.6	> 10	0.06	> 10	327
O=C1CN(/N=C/c2ccc([N+](=O)[O-])o2)C(=O)N1CCCCCn1cc(-c2cc(C(F)(F)F)cc(C(F)(F)F)c2)nn1	> 10	–	> 10	> 10	17.7	> 10	> 10	> 10	–
CCCCCCc1cn(CCCCCCN2C(=O)CN(/N=C/c3ccc([N+](=O)[O-])o3)C2=O)nn1	5.3	16	> 10	> 10	83.4	> 10	0.48	> 10	174
CCCCCCc1cn(CCCCCN2C(=O)CN(/N=C/c3ccc([N+](=O)[O-])o3)C2=O)nn1	1.5	44	> 10	> 10	65.9	> 10	0.61	> 10	108
O=C1CN(/N=C/c2ccc([N+](=O)[O-])o2)C(=O)N1CCCn1cc(-c2ccc(F)cc2)nn1	0.74	> 135	> 10	> 10	> 100	> 10	> 10	> 10	–
O=C1CN(/N=C/c2ccc([N+](=O)[O-])o2)C(=O)N1CCCn1cc(-c2cc(C(F)(F)F)cc(C(F)(F)F)c2)nn1	0.67	46	> 10	> 10	30.6	> 10	1.2	> 10	26
Cc1ccc(-c2cn(CCCCCN3C(=O)CN(/N=C/c4ccc([N+](=O)[O-])o4)C3=O)nn2)cc1	1.86	8	> 10	> 10	13.9	> 10	> 10	> 10	–
CCCCCCCCc1cn(CCCCCN2C(=O)CN(/N=C/c3ccc([N+](=O)[O-])o3)C2=O)nn1	> 10	–	> 10	> 10	28.6	> 10	> 10	> 10	–
CCCCCc1ccc(-c2cn(CCCCCN3C(=O)CN(/N=C/c4ccc([N+](=O)[O-])o4)C3=O)nn2)cc1	> 10	–	> 10	> 10	9.73	> 10	> 10	> 10	–
